Measured values from ChEMBL document CHEMBL4304831, “Chalcone-Thiazole Hybrids: Rational Design, Synthesis, and Lead Identification against 5-Lipoxygenase” (ACS Med Chem Lett, 2019).

T1: Polyunsaturated fatty acid 5-lipoxygenase (Homo sapiens) (UniProt P09917)
T1 sequence (whole entry): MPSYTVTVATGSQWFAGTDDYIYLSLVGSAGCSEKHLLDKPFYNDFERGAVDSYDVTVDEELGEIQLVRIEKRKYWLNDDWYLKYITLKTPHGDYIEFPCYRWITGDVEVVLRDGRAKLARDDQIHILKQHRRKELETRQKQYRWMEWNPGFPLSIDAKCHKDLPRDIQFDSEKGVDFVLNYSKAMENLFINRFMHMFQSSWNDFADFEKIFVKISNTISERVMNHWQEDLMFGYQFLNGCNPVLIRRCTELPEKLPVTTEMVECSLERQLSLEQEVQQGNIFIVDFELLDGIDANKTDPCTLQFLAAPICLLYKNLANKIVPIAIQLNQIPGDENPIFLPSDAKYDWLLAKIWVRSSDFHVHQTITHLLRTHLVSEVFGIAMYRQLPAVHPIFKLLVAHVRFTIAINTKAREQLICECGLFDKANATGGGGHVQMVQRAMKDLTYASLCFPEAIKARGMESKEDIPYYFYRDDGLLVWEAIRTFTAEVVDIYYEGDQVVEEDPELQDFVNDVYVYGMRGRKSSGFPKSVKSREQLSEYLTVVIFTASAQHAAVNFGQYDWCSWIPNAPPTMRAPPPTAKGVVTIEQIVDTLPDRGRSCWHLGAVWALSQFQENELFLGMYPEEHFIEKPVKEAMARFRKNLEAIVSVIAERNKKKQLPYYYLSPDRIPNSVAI

T2: Polyunsaturated fatty acid 5-lipoxygenase (Homo sapiens, UniProt P09917)
T2 sequence (P09917 whole entry): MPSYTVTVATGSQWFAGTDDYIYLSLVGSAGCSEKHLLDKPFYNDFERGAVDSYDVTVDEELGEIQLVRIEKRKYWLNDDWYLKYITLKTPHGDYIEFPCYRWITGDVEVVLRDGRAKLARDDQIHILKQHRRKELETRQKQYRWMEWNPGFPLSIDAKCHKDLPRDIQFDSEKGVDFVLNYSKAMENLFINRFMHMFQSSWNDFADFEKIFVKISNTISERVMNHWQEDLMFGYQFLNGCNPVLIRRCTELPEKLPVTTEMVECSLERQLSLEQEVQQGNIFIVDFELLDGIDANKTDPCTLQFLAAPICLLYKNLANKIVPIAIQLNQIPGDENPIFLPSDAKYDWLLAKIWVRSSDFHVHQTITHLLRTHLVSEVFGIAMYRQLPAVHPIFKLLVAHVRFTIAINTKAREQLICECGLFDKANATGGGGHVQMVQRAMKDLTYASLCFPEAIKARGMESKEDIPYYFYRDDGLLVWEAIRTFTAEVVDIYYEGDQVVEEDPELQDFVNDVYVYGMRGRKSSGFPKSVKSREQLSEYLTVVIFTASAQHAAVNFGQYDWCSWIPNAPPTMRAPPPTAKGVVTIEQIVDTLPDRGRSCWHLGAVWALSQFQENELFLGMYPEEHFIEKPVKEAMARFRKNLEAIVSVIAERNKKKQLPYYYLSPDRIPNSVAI


What was measured:
[1] = biological target: T1, Polyunsaturated fatty acid 5-lipoxygenase (Homo sapiens); test: Inhibition of human recombinant 5-LOX expressed in Escherichia coli BL21 assessed as conversion of arachidonic acid to 5-HPETE at 10 uM using arachidonic acid as substrate in presence of ATP by UV-vis spectrophotometry analysis relative to control
[2] = Antioxidant activity assessed as DPPH radical scavenging activity at 10 uM after 30 mins under dark condition relative to control; assay type: functional
[3] = biological target: T2, Polyunsaturated fatty acid 5-lipoxygenase; test: Inhibition of human recombinant 5-LOX expressed in Escherichia coli BL21 assessed as conversion of arachidonic acid to 5-HPETE using arachidonic acid as substrate in presence of ATP by UV-vis spectrophotometry analysis
[4] = biological target: T1, Polyunsaturated fatty acid 5-lipoxygenase (Homo sapiens); test: Inhibition of human recombinant 5-LOX pseudoperoxidase activity expressed in Escherichia coli BL21 assessed as compound redox activity by measuring change in absorption at 10 uM using 13(S)-HpODE as substrate in presence of ATP by UV-vis spectrophotometric method relative to control; parameters: scale not given: the % may be the effect or the level left
[5] = compound: COc1cc(/C=C/C(=O)c2sc(NC(=O)c3ccccc3)nc2C)cc(OC)c1OC; test: Noncompetitive inhibition of human recombinant 5-LOX expressed in Escherichia coli BL21 assessed as Km for substrate at 2 uM using varying levels arachidonic acid as substrate by Lineweaver-Burk plot analysis (reference value: 1.9 +/- 0.4 uM)
[6] = compound: COc1cc(/C=C/C(=O)c2sc(NC(=O)c3ccccc3)nc2C)cc(OC)c1OC; test: Noncompetitive inhibition of human recombinant 5-LOX expressed in Escherichia coli BL21 assessed as Km for substrate at 5 uM using varying levels arachidonic acid as substrate by Lineweaver-Burk plot analysis (reference value: 1.9 +/- 0.4 uM)
[7] = compound: COc1cc(/C=C/C(=O)c2sc(NC(=O)c3ccccc3)nc2C)cc(OC)c1OC; test: Noncompetitive inhibition of human recombinant 5-LOX expressed in Escherichia coli BL21 assessed as decrease in Vmax for substrate at 2 uM using varying levels arachidonic acid as substrate by Lineweaver-Burk plot analysis (reference value: 0.38 +/- 0.02 nmol/min)
[8] = compound: COc1cc(/C=C/C(=O)c2sc(NC(=O)c3ccccc3)nc2C)cc(OC)c1OC; test: Noncompetitive inhibition of human recombinant 5-LOX expressed in Escherichia coli BL21 assessed as decrease in Vmax for substrate at 5 uM using varying levels arachidonic acid as substrate by Lineweaver-Burk plot analysis (reference value: 0.38 +/- 0.02 nmol/min)
[9] = compound: COc1ccc(C(=O)Nc2nc(C)c(C(=O)/C=C/c3ccc(C)cc3)s2)cc1; test: (§1) Competitive inhibition of human recombinant 5-LOX expressed in Escherichia coli BL21 assessed as Vmax for substrate at 2 uM using varying levels arachidonic acid as substrate by Lineweaver-Burk plot analysis (reference value: 0.33 to 0.45 +/- 0.01 nmol/min)
[10] = compound: Cc1nc(NC(=O)c2ccccc2)sc1C(=O)/C=C/c1cc2c(cc1Br)OCO2; test: as §1
[11] = compound: COc1ccc(C(=O)Nc2nc(C)c(C(=O)/C=C/c3ccc(C)cc3)s2)cc1; test: (§2) Competitive inhibition of human recombinant 5-LOX expressed in Escherichia coli BL21 assessed as Vmax for substrate at 5 uM using varying levels arachidonic acid as substrate by Lineweaver-Burk plot analysis (reference value: 0.33 to 0.45 +/- 0.01 nmol/min)
[12] = compound: Cc1nc(NC(=O)c2ccccc2)sc1C(=O)/C=C/c1cc2c(cc1Br)OCO2; test: as §2
[13] = compound: COc1ccc(C(=O)Nc2nc(C)c(C(=O)/C=C/c3ccc(C)cc3)s2)cc1; test: (§3) Competitive inhibition of human recombinant 5-LOX expressed in Escherichia coli BL21 assessed as increase in Km for substrate at 2 uM using varying levels arachidonic acid as substrate by Lineweaver-Burk plot analysis (reference value: 0.31 to 0.35 +/- 0.08 to 0.10 uM)
[14] = compound: Cc1nc(NC(=O)c2ccccc2)sc1C(=O)/C=C/c1cc2c(cc1Br)OCO2; test: as §3
[15] = compound: COc1ccc(C(=O)Nc2nc(C)c(C(=O)/C=C/c3ccc(C)cc3)s2)cc1; test: (§4) Competitive inhibition of human recombinant 5-LOX expressed in Escherichia coli BL21 assessed as increase in Km for substrate at 5 uM using varying levels arachidonic acid as substrate by Lineweaver-Burk plot analysis (reference value: 0.31 to 0.35 +/- 0.08 to 0.10 uM)
[16] = compound: Cc1nc(NC(=O)c2ccccc2)sc1C(=O)/C=C/c1cc2c(cc1Br)OCO2; test: as §4

| Molecule | inhibition [1] [%] | IC50 [3] [nM] | Activity [4] [%] | Activity [2] [%] | other results |
| --- | --- | --- | --- | --- | --- |
| Cc1nc(NC(=O)c2ccc(F)cc2)sc1C(=O)/C=C/c1ccco1 | 65.3 | – | – | 8.2 | – |
| O=C1O[C@H]([C@@H](O)CO)C(O)=C1O | – | – | – | 60.5 | – |
| COc1ccc(/C=C/C(=O)c2sc(NC(=O)c3ccccc3)nc2C)cc1 | 58.8 | – | – | 7.9 | – |
| Cc1nc(NC(=O)c2ccccc2)sc1C(=O)/C=C/c1ccc(Br)cc1 | 52.3 | – | – | 2.4 | – |
| Cc1nc(NC(=O)c2ccccc2)sc1C(=O)/C=C/c1ccc(F)cc1 | 98 | 140 | -12.5 | 3 | – |
| Cc1nc(NC(=O)c2ccccc2)sc1C(=O)/C=C/c1ccc(N(C)C)cc1 | 88.2 | 640 | -12.2 | 0 | – |
| Cc1ccc(/C=C/C(=O)c2sc(NC(=O)c3ccc(F)cc3)nc2C)cc1 | 91.5 | 540 | -56.3 | 15 | – |
| Cc1nc(NC(=O)c2ccccc2)sc1C(=O)/C=C/c1cc2c(cc1Br)OCO2 | 100 | 120 | 1.2 | 5.4 | – |
| Cc1nc(NC(=O)c2ccccc2)sc1C(=O)/C=C/c1ccccc1 | 73.5 | – | – | 2.5 | – |
| COc1ccc(C(=O)Nc2nc(C)c(C(=O)/C=C/c3ccc(F)cc3)s2)cc1 | 88.2 | 560 | 0.3 | 2.1 | – |
| Cc1ccc(/C=C/C(=O)c2sc(NC(=O)c3ccccc3)nc2C)cc1 | 75.1 | – | – | 3 | – |
| CC(c1cc2ccccc2s1)N(O)C(N)=O (centres undefined) | – | – | – | 10.3 | – |
| Cc1nc(NC(=O)c2ccccc2)sc1C(=O)/C=C/c1ccco1 | 57.2 | – | – | 3.4 | – |
| Polyunsaturated fatty acid 5-lipoxygenase (Homo sapiens), P09917 (protein) MPSYTVTVATGSQWFAGTDDYIYLSLVGSAGCSEKHLLDKPFYNDFERGAVDSYDVTVDEELGEIQLVRIEKRKYWLNDDWYLKYITLKTPHGDYIEFPCYRWITGDVEVVLRDGRAKLARDDQIHILKQHRRKELETRQKQYRWMEWNPGFPLSIDAKCHKDLPRDIQFDSEKGVDFVLNYSKAMENLFINRFMHMFQSSWNDFADFEKIFVKISNTISERVMNHWQEDLMFGYQFLNGCNPVLIRRCTELPEKLPVTTEMVECSLERQLSLEQEVQQGNIFIVDFELLDGIDANKTDPCTLQFLAAPICLLYKNLANKIVPIAIQLNQIPGDENPIFLPSDAKYDWLLAKIWVRSSDFHVHQTITHLLRTHLVSEVFGIAMYRQLPAVHPIFKLLVAHVRFTIAINTKAREQLICECGLFDKANATGGGGHVQMVQRAMKDLTYASLCFPEAIKARGMESKEDIPYYFYRDDGLLVWEAIRTFTAEVVDIYYEGDQVVEEDPELQDFVNDVYVYGMRGRKSSGFPKSVKSREQLSEYLTVVIFTASAQHAAVNFGQYDWCSWIPNAPPTMRAPPPTAKGVVTIEQIVDTLPDRGRSCWHLGAVWALSQFQENELFLGMYPEEHFIEKPVKEAMARFRKNLEAIVSVIAERNKKKQLPYYYLSPDRIPNSVAI | – | – | – | – | Km [5]: 1.8 µM; Km [6]: 2.1 µM; Vmax [7]: 0.29 nmol/min; Vmax [8]: 0.25 nmol/min; Vmax [9]: 0.32 nmol/min; Vmax [10]: 0.43 nmol/min; Vmax [11]: 0.31 nmol/min; Vmax [12]: 0.42 nmol/min; Km [13]: 0.43 µM; Km [14]: 1.41 µM; Km [15]: 0.53 µM; Km [16]: 2.91 µM |

Second part, led by results:

| inhibition [1] [%] | IC50 [3] [nM] | Activity [4] [%] | Molecule | Activity [2] [%] | other results |
| --- | --- | --- | --- | --- | --- |
| 70.2 | – | – | Cc1nc(NC(=O)c2ccc(F)cc2)sc1C(=O)/C=C/c1ccc(N(C)C)cc1 | 3.9 | – |
| 42.5 | – | – | Cc1nc(NC(=O)c2ccccc2)sc1C(=O)/C=C/c1cccc(Br)c1 | 5.7 | – |
| 70.2 | – | – | COc1ccc(/C=C/C(=O)c2sc(NC(=O)c3ccccc3)nc2C)cc1OC | 6.4 | – |
| 63.7 | – | – | Cc1nc(NC(=O)c2ccccc2)sc1C(=O)/C=C/c1ccc(Cl)cc1 | 8.8 | – |
| 71.9 | – | – | Cc1nc(NC(=O)c2ccccc2)sc1C(=O)/C=C/c1cccs1 | 2.2 | – |
| 48.8 | – | – | Cc1nc(NC(=O)c2ccc([N+](=O)[O-])cc2)sc1C(=O)/C=C/c1ccc(Cl)cc1 | 2.4 | – |
| 100 | 70 | -56.6 | COc1cc(/C=C/C(=O)c2sc(NC(=O)c3ccccc3)nc2C)cc(OC)c1OC | 5.7 | – |
| 98 | 240 | -40.2 | Cc1nc(NC(=O)c2ccccc2)sc1C(=O)/C=C/c1cccc([N+](=O)[O-])c1 | 8.7 | – |
| 100 | 80 | 5.6 | COc1ccc(C(=O)Nc2nc(C)c(C(=O)/C=C/c3ccc(C)cc3)s2)cc1 | 5.5 | – |
| 50.6 | – | – | Cc1nc(NC(=O)c2ccc(F)cc2)sc1C(=O)/C=C/c1cc2c(cc1Br)OCO2 | 5.1 | – |
| 81.7 | – | – | Cc1nc(NC(=O)c2ccc(F)cc2)sc1C(=O)/C=C/c1cccs1 | 0 | – |
